ChEMBL document CHEMBL5154804, “Species-Selective Targeting of Fungal Hsp90: Design, Synthesis, and Evaluation of Novel 4,5-Diarylisoxazole Derivatives for the Combination Treatment of Azole-Resistant Candidiasis” (J Med Chem, 2022)

Legend:
Type in all cases: functional
[1] = tested on: Candida albicans; test: Synergistic antifungal activity against fluconazole-resistant Candida albicans 904 assessed as inhibition of fungal growth in presence of fluconazole by checker board microdilution assay; further: test concentration or dose not given here
[2] = tested on: Candida albicans; test: Synergistic antifungal activity against fluconazole-resistant Candida albicans 632 assessed as inhibition of fungal growth in presence of fluconazole by checker board microdilution assay
[3] = tested on: Candida albicans; test: Synergistic antifungal activity against fluconazole-resistant Candida albicans 103 assessed as inhibition of fungal growth in presence of fluconazole by checker board microdilution assay
[4] = tested on: Candida albicans; test: Synergistic antifungal activity against fluconazole-resistant Candida albicans 901 assessed as inhibition of fungal growth in presence of fluconazole by checker board microdilution assay
[5] = tested on: Candida albicans; test: Synergistic antifungal activity against fluconazole-resistant Candida albicans 100 assessed as inhibition of fungal growth in presence of fluconazole by checker board microdilution assay
[6] = tested on: Candida albicans; test: Synergistic antifungal activity against fluconazole-resistant Candida albicans 311 assessed as inhibition of fungal growth in presence of fluconazole by checker board microdilution assay; further: test concentration or dose not given here

Compound	MIC80 [1]	MIC80 [2]	MIC80 [3]	MIC80 [4]	MIC80 [5]	MIC80 [6]
CCNC(=O)c1noc(-c2cc(-c3ccc(-c4ccccc4)cc3)c(O)cc2O)c1-c1ccc(CN2CCOCC2)cc1	> 64 µg/mL	> 64 µg/mL	> 64 µg/mL	> 64 µg/mL	> 64 µg/mL	> 64 µg/mL
CCNC(=O)c1noc(-c2cc(-c3ccc(F)cc3)c(O)cc2O)c1-c1ccc(CN2CCOCC2)cc1	1 µg/mL	4 µg/mL	16 µg/mL	2 µg/mL	16 µg/mL	16 µg/mL
CCNC(=O)c1noc(-c2cc(-c3ccc(C(C)C)cc3)c(O)cc2O)c1-c1ccc(CN2CCOCC2)cc1	> 64 µg/mL	> 64 µg/mL	> 64 µg/mL	> 64 µg/mL	> 64 µg/mL	> 64 µg/mL
CCNC(=O)c1noc(-c2cc(-c3ccc(CC)cc3)c(O)cc2O)c1-c1ccc(CN2CCOCC2)cc1	0.5 µg/mL	2 µg/mL	2 µg/mL	0.5 µg/mL	4 µg/mL	1 µg/mL
CCNC(=O)c1noc(-c2cc(-c3ccccc3Cl)c(O)cc2O)c1-c1ccc(CN2CCOCC2)cc1	> 64 µg/mL	> 64 µg/mL	> 64 µg/mL	> 64 µg/mL	> 64 µg/mL	> 64 µg/mL
Cc1ccc(-c2cc(-c3onc(C(=O)N4CCCC4)c3-c3ccc(CN4CCOCC4)cc3)c(O)cc2O)cc1	> 64 µg/mL	> 64 µg/mL	> 64 µg/mL	> 64 µg/mL	> 64 µg/mL	> 64 µg/mL
CCNC(=O)c1noc(-c2cc(-c3ccc(OC(F)(F)F)cc3)c(O)cc2O)c1-c1ccc(CN2CCOCC2)cc1	> 64 µg/mL	> 64 µg/mL	> 64 µg/mL	> 64 µg/mL	> 64 µg/mL	> 64 µg/mL
CCNC(=O)c1noc(-c2cc(-c3ccccc3CC)c(O)cc2O)c1-c1ccc(CN2CCOCC2)cc1	> 64 µg/mL	> 64 µg/mL	> 64 µg/mL	> 64 µg/mL	> 64 µg/mL	> 64 µg/mL
CCN(CC)C(=O)c1noc(-c2cc(-c3ccc(C)cc3)c(O)cc2O)c1-c1ccc(CN2CCCCC2)cc1	8 µg/mL	4 µg/mL	2 µg/mL	4 µg/mL	4 µg/mL	4 µg/mL
CCCNC(=O)c1noc(-c2cc(-c3ccc(C)cc3)c(O)cc2O)c1-c1ccc(CN2CCCCC2)cc1	2 µg/mL	4 µg/mL	4 µg/mL	4 µg/mL	8 µg/mL	8 µg/mL
Cc1ccc(-c2cc(-c3onc(C(=O)NC(C)C)c3-c3ccc(CN4CCCCC4)cc3)c(O)cc2O)cc1	2 µg/mL	2 µg/mL	4 µg/mL	4 µg/mL	8 µg/mL	8 µg/mL
CCNC(=O)c1noc(-c2cc(-c3ccc(C)cc3)c(O)cc2O)c1-c1ccc(CN2CCC(N(C)C)CC2)cc1	4 µg/mL	64 µg/mL	4 µg/mL	16 µg/mL	64 µg/mL	2 µg/mL
CCNC(=O)c1noc(-c2cc(-c3ccc(C)cc3)c(O)cc2O)c1-c1ccc(CNC2CCCC2)cc1	> 64 µg/mL	> 64 µg/mL	> 64 µg/mL	> 64 µg/mL	> 64 µg/mL	> 64 µg/mL
CCNC(=O)c1noc(-c2cc(-c3ccc(C)cc3)c(O)cc2O)c1-c1ccc(CN2CCCC2)cc1	2 µg/mL	4 µg/mL	4 µg/mL	1 µg/mL	2 µg/mL	4 µg/mL
CCNC(=O)c1noc(-c2cc(-c3ccc(Cl)cc3)c(O)cc2O)c1-c1ccc(CN2CCOCC2)cc1	0.5 µg/mL	8 µg/mL	8 µg/mL	0.5 µg/mL	4 µg/mL	16 µg/mL
CCNC(=O)c1noc(-c2cc(-c3ccc(C)cc3)c(O)cc2O)c1-c1ccc(CNC2CCN(C)CC2)cc1	64 µg/mL	8 µg/mL	16 µg/mL	16 µg/mL	64 µg/mL	64 µg/mL
